Results: patent publication US20020068351A1, “Human brain phosphodiesterase” (SmithKline Beecham Corporation, priority 1994, published 2002)
Entries after “also recorded” stand apart in the source; their conditions may differ. Values belong to the compound of their own block, whether it stands above or below them.

Assays:
hPDE IVB = hPDE IVB (Homo sapiens, UniProt Q07343); test: PDE assay: cAMP hydrolysis by recombinant hPDE IVB in yeast lysate supernatant
Protocol: PDE Assays and Inhibitor Studies—PDE activity was determined in 100,000×g supernatant fractions of yeast cell lysates. […] For studies in which the IC50s of various inhibitors were determined, compounds were present in the reaction mixture at concentrations that varied over three orders of magnitude. Reactions were conducted at 30° C. for 30 min.
Appropriate corrections were made for the changes in specific activity of the substrate. […] Statistical comparisons between one-site and two-site fits were conducted via F test.

wild-type yeast cells = test: Yeast control: killing of wild-type cells
Protocol: (§1) For heat shock, cells are replicated from the master plate onto two plates each containing the same medium as describe above, one of which is preheated to 55° C. for 1 hour. Cells transferred to the preheated plate are incubated at 55° C. for 5 minutes and then shifted to 30° C. For monitoring growth on acetate, the master plate is replicated to a plate containing the same medium except 2% potassium acetate instead of glucose. Growth is scored after five days at 5 days at 30° C.

[1] = system: PDE-deficient mutant cells expressing the human PDE IV; test: Yeast growth arrest assay in PDE-deficient cells expressing human PDE IV
Protocol: as §1

hPDE IVB, sequence (Q07343 1-564 isoform Q07343-2): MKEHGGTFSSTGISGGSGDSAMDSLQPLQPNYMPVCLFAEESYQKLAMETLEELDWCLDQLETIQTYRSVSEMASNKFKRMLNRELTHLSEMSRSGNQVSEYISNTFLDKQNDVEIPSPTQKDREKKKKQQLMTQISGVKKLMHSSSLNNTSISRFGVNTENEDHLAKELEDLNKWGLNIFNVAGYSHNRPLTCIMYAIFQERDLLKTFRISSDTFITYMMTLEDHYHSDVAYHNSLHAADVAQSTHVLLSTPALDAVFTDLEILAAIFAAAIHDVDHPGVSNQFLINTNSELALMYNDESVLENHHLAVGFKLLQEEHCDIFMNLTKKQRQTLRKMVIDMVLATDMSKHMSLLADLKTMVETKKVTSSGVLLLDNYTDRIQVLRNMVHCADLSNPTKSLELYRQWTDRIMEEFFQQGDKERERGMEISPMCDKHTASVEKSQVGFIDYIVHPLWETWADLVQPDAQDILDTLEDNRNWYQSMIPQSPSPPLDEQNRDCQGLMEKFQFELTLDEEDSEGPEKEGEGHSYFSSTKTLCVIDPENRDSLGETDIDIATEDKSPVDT

- Km (hPDE IVB; substrate of hPDE IVB): > 10 mM
Compound: Nc1nc2c(ncn2[C@@H]2O[C@@H]3COP(=O)(O)O[C@H]3[C@H]2O)c(=O)[nH]1 [cGMP]
- hydrolysis of cGMP as substrate (hPDE IVB; hPDE IVB, substrate concentrations as great as 10 mM): very poor activity; also recorded: No detectable hydrolysis

Compound: COc1ccc(C2CNC(=O)C2)cc1OC1CCCC1 (stereo not drawn) [rolipram]
- killing effect (wild-type yeast cells): no killing effect
- cytotoxicity ([1]; under growth arrest conditions): cytotoxic
- killing effect ([1]; under normal growth conditions): no killing effect

- IC50 (hPDE IVB): > 30 µM
Compound: CN/C(=N\c1ccc(C2=NNC(=O)CC2C)cc1)NC#N (stereo not drawn) [siquazodan, siguazodan]
